From patent US10041937B2, “Macrophage identification agent, and identification method, sorting method, evaluation method, screening method and kit using the macrophage identifier agent” (CANON KABUSHIKI KAISHA, priority 2013, dated 2018)

Assays:
[1] = system: M1 macrophages and M2 macrophages differentiated from mouse bone marrow cells; experiment: Subtype identification by staining and flow cytometry of M1 and M2 macrophages differentiated from mouse bone marrow cells; assay type: cell-based, Balb/c mouse
Summary of the method: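 Balb/c mouse bone marrow cells were differentiated to macrophages with 50 ng/mL M-CSF over two 3–4-day periods, then polarized for 3 days to M1 (interferon-γ plus polyliposaccharide) or M2 (IL-4). Live cells (aqua dye-negative) were analysed by flow cytometry; resolution R = |FM1−FM2|/(WM1+WM2) from histogram peak positions and widths indexed subtype discrimination.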

[2] = system: mixture of the M1 macrophages and the M2 macrophages; experiment: Sorting of subtypes from a mixture of M1 and M2 macrophages with an FACS apparatus; assay type: cell-based, mouse; details: compound 1 μM
[3] = system: M1 macrophages and M2 macrophages differentiated from THP-1 cells; experiment: Identification of macrophage subtypes differentiated from human cell line THP-1; assay type: cell-based
Protocol: The fluorescent signals derived from the compounds (3), (4), (6), (7), (9), (11) to (13), (15), (17), (19) to (26), (28), (30) to (33), (35), (36), (38), (42) to (45), (48) to (62), (65), (67), (74) to (76), (82), (83) and (85) and the comparative compounds (1) and (2) were measured in channels suitable to the respective compounds. Histograms were prepared by plotting fluorescence intensities obtained in the respective channels on the abscissa and plotting the numbers of cells at each fluorescence intensity on the ordinate. A difference between a fluorescence intensity (FM1) at a peak top of the histogram of the M1 macrophage and a fluorescence intensity (FM2) at a peak top of the histogram of the M2 macrophage is divided by a sum of a peak width (WM1) of the histogram of the M1 macrophage and a peak width (WM2) of the histogram of the M2 macrophage, so as to obtain a resolution R, which was used as an index of the identification ability for a subtype (see the following expression (1)). Resolution R=|FM1−FM2|/(WM1+WM2) Expression (1)
Based on the thus obtained values of the resolution R, the identification abilities for the subtypes of the compounds (3), (4), (6), (7), (9), (11) to (13), (15), (17), (19) to (26), (28), (30) to (33), (35), (36), (38), (42) to (45), (48) to (62), (65), (67), (74) to (76), (82), (83) and (85) and the comparative compounds (1) and (2) were evaluated as any of A to C according to the following criteria, and if the resolution R was 0.15 or more, the compound was determined to be good in the subtype identification.
The subtypes were identified by using the compound (1) in the same manner as in Example 1 except that the macrophage subtypes differentiated from the mouse bone marrow cells were changed to macrophage subtypes differentiated from a cell line established from human acute monocytic leukemia.
The culture of subtypes was performed with reference to NPL 10. Specifically, THP-1 cells purchased from JCRB Cell Bank of National Institute of Biomedical Innovation, that is, a cell line established from human acute monocytic leukemia, were subcultured several times, and the resultant cells were dispersed to a concentration of 5.0×10^5/mL in an RPMI1640 containing 10% FBS and 1% P/S, and 5.0×10^6 cells were seeded in a 100 mm dish. The monocytes were differentiated into macrophages by incubating the resultant in the presence of 5% CO2 at 37° C. for 2 days with 500 ng of PMA added thereto. After exchanging the medium, by adding 200 ng of interferon-γ and 1 μg of polyliposaccharide (both manufactured by Pepro Tech) to the medium, the cells were differentiated to the subtype M1. Besides, by adding 200 ng of IL-4 and IL-13, the cells were differentiated to the subtype M2. After incubation performed in the presence of 5% CO2 at 37° C. for 24 hours, the resultant was rinsed with PBS, and PBS containing 0.25% trypsin and 1 mM EDTA (ethylenediaminetetraacetic acid) was used for collecting, from the dish, the macrophages having been differentiated to the subtypes M1 and M2.
Specifically, fluorescent signals derived from the compounds (1) (3) (4) (12) and (15) were measured by using the channels which are appropriate for each of the compounds and the identification abilities for the subtypes of the compounds were evaluated based on the values of the resolution R.

[4] = fluorescence intensity at peak top of histogram, compound 1 μM, 37° C., 30 minutes

## CCOC(=O)CCN1C(=O)/C(=C\c2ccc3c(c2)C2CCCC2N3CC)SC1=S (stereo not drawn) [compound (1)]
[1]; R=|FM1−FM2|/(WM1+WM2), compound 1 μM
  Resolution ratio R: 1.150
[1]; [4]
  Peak position of M1 macrophage: 85.8
  Peak position of M2 macrophage: 12.4
[1]; rated from resolution R
  Evaluation of macrophage subtype identification: A (The compound is very good in the subtype identification (namely, the resolution R is 0.5 or more))
[1]; two compounds used in combination, each 1 μM
  subtype more strongly stained: the M1 macrophages are more strongly stained than the M2 macrophages
[2]; FACS apparatus
  sorting of identified M1 and M2 macrophages: could be each sorted with an FACS apparatus
[2]; mixed M1 and M2 macrophages
  subtype more strongly stained: stain the M1 macrophages more strongly than the M2 macrophages
[3]; M1 vs M2 macrophages differentiated from THP-1 cells, channel listed per compound (Table 6)
  Resolution ratio R: 0.409
[3]; M1 vs M2 macrophages differentiated from THP-1 cells, class based on resolution R (Table 6)
  Evaluation of macrophage subtype identification: B (the compound is good in the subtype identification (namely, the resolution R is 0.15 or more and less than 0.5))
[3]; THP-1-derived M1 macrophages, fluorescence intensity peak by flow cytometry in the channel listed per compound (Table 6)
  Peak position of M1 macrophage: 58.1
[3]; THP-1-derived M2 macrophages, fluorescence intensity peak by flow cytometry in the channel listed per compound (Table 6)
  Peak position of M2 macrophage: 33.4
[3]; subtype strongly stained, THP-1-derived macrophages (Table 6)
  Selectivity: M1
